Experimental data taken from patent publication US12071430B2 (The Johns Hopkins University, priority 2011, dated 2024).
≈ marks a conversion by molar mass, not a printed value.

Experiments:
CYP3A4 = target: T1, CYP3A4 (Homo sapiens, UniProt P08684); test: CYP3A4 enzyme assay (Vivid CYP3A4 Green Screening Kit); format: in vitro ADME; details: dose-response, FIG. 2 / FIG. 6; read-out: IC50 for CYP3A4 inhibition
T1 construct: purchased ThermoFisher P2857; host or cells: baculosomes (insect-cell microsomes, own knowledge)
T1 sequence (P08684 whole entry): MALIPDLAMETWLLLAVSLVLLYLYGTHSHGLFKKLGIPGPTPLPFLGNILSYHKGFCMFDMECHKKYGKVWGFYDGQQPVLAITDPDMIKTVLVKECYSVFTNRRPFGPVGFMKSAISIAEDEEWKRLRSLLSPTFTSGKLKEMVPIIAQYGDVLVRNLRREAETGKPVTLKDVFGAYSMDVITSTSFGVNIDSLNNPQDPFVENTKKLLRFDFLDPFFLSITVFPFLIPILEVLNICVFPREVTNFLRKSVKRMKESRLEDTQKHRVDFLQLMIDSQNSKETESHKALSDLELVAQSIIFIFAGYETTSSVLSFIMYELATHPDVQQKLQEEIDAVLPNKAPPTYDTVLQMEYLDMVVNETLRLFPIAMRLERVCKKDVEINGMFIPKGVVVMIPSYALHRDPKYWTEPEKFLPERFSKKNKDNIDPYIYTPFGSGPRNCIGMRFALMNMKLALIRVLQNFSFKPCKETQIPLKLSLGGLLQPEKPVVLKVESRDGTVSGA
Method: And CYP3A4 inhibition was initially determined using a cell-free fluorescence-based assay at a final concentration of 1 μM (Table 2).
CYP3A4 enzyme assay. CYP3A4 enzyme activity was tested using Vivid™ CYP3A4 Green Screening Kit (ThermoFisher, #P2857) using the manufacturer's protocol. Briefly, CYP3A4 baculosomes and drugs were incubated 10 min at 37° C. Then Vivid® Substrates were added and the fluorescence (ex/em:485/520) were read every 1 min for 60 minute.

HUVECs = test: Filipin staining of intracellular cholesterol (NPC phenotype); format: cell-based, human; details: HUVEC, 0.2 μM, 24 h
Text: Nieman-Pick C phenotype and mTOR inhibition. […] We thus determined whether compound 48 shared the same mechanism with itraconazole. The intracellular cholesterol was detected using the cholesterol-binding fluorescent dye filipin. […] It is known that AMPK activation leads to mTOR inhibition.
Inhibition of NPC1. NPC1 plays an essential role in cholesterol export from the endolysosome. […] At a close view (FIG. 9B), the linear pyridinyl-piperizin-1-yl-phenyl core of compound 14 nestled into the hydrophobic channel created by the transmembrane helix. The isobutyl tail faced toward the open entrance of this channel. The tetrazole moiety pointed into the closed end of the pocket and interacted with the hydroxyl group of Tyr1225 via hydrogen bonding.
Filipin staining. 2000 HUVECs were plated in chamber slide with 1 ml media and allowed to settle overnight. […] The the cells were fixed with 4% paraformaldehyde for 15 min. After washed, cells were incubated with 500 ul 50 ug/ml filipin solution for 1 hour in the dark. Then the cells were washed twice with PBS, mounted and covered with coverslip. The images were taken using confocal microscope under 360/460 nm.

[1] = Aqueous solubility test in 0.001N HCl; format: physicochemical; details: 0.001 N HCl aqueous buffer, simulated gastric fluid, kinetic from dmso stock; thermodynamic solubility, HPLC, pH=3, room temperature, 24 h
Method: (§1) The inhibitory effects of the new analogs on HUVEC proliferation were measured using a [3H]-thymidine incorporation assay. The log P values, used as an indicator of lipophilicity, were calculated using ALOGPS2.1 software. Aqueous solubility is a key physiochemical property relevant for oral absorption. We determined the solubility of each analog in 0.001 N HCl (pH=3), which represents the acidic human gastric fluid.
Aqueous solubility test. In a 1.5 mL microcentrifuge tube, 2 ul of 10 mM compound stock solution in DMSO was added to 1 mL 0.001N HCl aqueous buffer to obtain saturated solution. The resulting mixture was shaken under 600 rpm for 24 h at room temperature. Then the tube was centrifuged at 13,000 rpm for 5 min to remove the undissolved compound. 100 ul of the supernatant was injected to an Agilent 6120 LC/MS for analysis. The mass spectrometry data was collected under SIM/Scan mode. The ions of compound Exact Mass+1 and Exact Mass+23 were monitored as selected ion monitoring (SIM) for peak area integration. Solubility was calculated according to the concentration standard curve of each compound.

HUVEC [2] = test: HUVEC proliferation, [3H]-thymidine incorporation assay; format: cell-based; details: Homo sapiens, mean ± SD, three independent experiments, read-out: HUVEC inhibition IC50
HUVEC [3] = test: as above; format: cell-based, human; details: HUVEC
Method: as §1
HUVEC Culture and Proliferation Assays. HUVEC (Lonza) were grown in EGM-2 bullet kit media (Lonza) and used at passage eight or lower. The H thymidine incorporation assays were conducted as previously described. Briefly, cells were seeded on 96-well plate at a concentration of 2000 cells/well and allowed to settle overnight. Drugs were added to each well in triplicate. After 24 hours, cells were treated with 1 μCi of [3H] thymidine for 6 h. Then cells were harvested and transferred to filtermats. The scintillation were counted and IC50 were determined using Prism software (version 6.0).

SMILES	IC50 (CYP3A4) [nM]	induction of NPC phenotype (cholesterol accumulation) (HUVECs)	solubility at 24 h [1] [µg/mL]	IC50 (HUVEC [2]) [nM]	HUVEC proliferation / anti-angiogenic potency compared to itraconazole, in words (HUVEC [3])
CCC(C)n1ncn(-c2ccc(N3CCN(c4ccc(OC[C@@H]5CO[C@@](Cn6cnnn6)(c6ccc(Cl)cc6Cl)O5)cc4)CC3)c(F)c2)c1=O (stereo partly drawn) [Compound 8, 4-(4-(4-(4-(((2S,4R)-2-((1H-tetrazol-1-yl)methyl)-2-(2,4-dichlorophenyl)-1,3-dioxolan-4-yl)methoxy)phenyl)piperazin-1-yl)-3-fluorophenyl)-2-(sec-butyl)-2,4-dihydro-3H-1,2,4-triazol-3-one]	> 100000	massive build-up of cholesterol	0.0528 (≈ 0.0729 µM)	153 ± 32.7	–
CCC(C)n1ncn(-c2ccc(N3CCN(c4ccc(OC[C@@H]5CO[C@@](Cn6cncn6)(c6ccc(Cl)cc6Cl)O5)cn4)CC3)c(F)c2)c1=O (stereo partly drawn) [Compound 106, 4-(4-(4-(5-(((2S,4R)-2-((1H-1,2,4-triazol-1-yl)methyl)-2-(2,4-dichlorophenyl)-1,3-dioxolan-4-yl)methoxy)pyridin-2-yl)piperazin-1-yl)-3-fluorophenyl)-2-(sec-butyl)-2,4-dihydro-3H-1,2,4-triazol-3-one]	–	–	0.848 (≈ 1.17 µM)	173 ± 27.6	–
CCC(C)n1ncn(-c2ccc(N3CCN(c4ccc(OC[C@@H]5CO[C@@](Cn6ccnc6)(c6ccc(Cl)cc6Cl)O5)cc4)CC3)cn2)c1=O (stereo partly drawn) [Compound 7, 4-(5-(4-(4-(((2S,4R)-2-((1H-imidazol-1-yl)methyl)-2-(2,4-dichlorophenyl)-1,3-dioxolan-4-yl)methoxy)phenyl)piperazin-1-yl)pyridin-2-yl)-2-(sec-butyl)-2,4-dihydro-3H-1,2,4-triazol-3-one]	–	–	41.3 (≈ 58.6 µM)	636 ± 177	–
CCC(C)n1ncn(-c2ccc(N3CCN(c4ccc(OC[C@@H]5CO[C@@](Cn6ccnc6)(c6ccc(Cl)cc6Cl)O5)cn4)CC3)c(F)c2)c1=O (stereo partly drawn) [Compound 5, 4-(4-(4-(5-(((2S,4R)-2-((1H-imidazol-1-yl)methyl)-2-(2,4-dichlorophenyl)-1,3-dioxolan-4-yl)methoxy)pyridin-2-yl)piperazin-1-yl)-3-fluorophenyl)-2-(sec-butyl)-2,4-dihydro-3H-1,2,4-triazol-3-one]	–	–	125 (≈ 173 µM)	68 ± 15.5	increased activities
CCC(C)n1ncn(-c2ccc(N3CCN(c4ccc(OC[C@@H]5CO[C@@](Cn6cncn6)(c6ccc(Cl)cc6Cl)O5)cn4)CC3)cc2)c1=O (stereo partly drawn) [Compound 101, 4-(4-(4-(5-(((2S,4R)-2-((1H-1,2,4-triazol-1-yl)methyl)-2-(2,4-dichlorophenyl)-1,3-dioxolan-4-yl)methoxy)pyridin-2-yl)piperazin-1-yl)phenyl)-2-(sec-butyl)-2,4-dihydro-3H-1,2,4-triazol-3-one]	3400	–	0.114 (≈ 0.161 µM)	380 ± 50.8	–
CCC(C)n1ncn(-c2ccc(N3CCN(c4ccc(OC[C@@H]5CO[C@@](Cn6cncn6)(c6ccc(Cl)cc6Cl)O5)nc4)CC3)c(F)c2)c1=O (stereo partly drawn) [Compound 105, 4-(4-(4-(6-(((2S,4R)-2-((1H-1,2,4-triazol-1-yl)methyl)-2-(2,4-dichlorophenyl)-1,3-dioxolan-4-yl)methoxy)pyridin-3-yl)piperazin-1-yl)-3-fluorophenyl)-2-(sec-butyl)-2,4-dihydro-3H-1,2,4-triazol-3-one]	–	–	0.255 (≈ 0.352 µM)	446 ± 38.3	–
CCC(C)n1ncn(-c2ccc(N3CCN(c4ccc(OC[C@@H]5CO[C@@](Cn6ccnc6)(c6ccc(Cl)cc6Cl)O5)cc4)CC3)c(F)c2)c1=O (stereo partly drawn) [Compound 1, 4-(4-(4-(4-(((2S,4R)-2-((1H-imidazol-1-yl)methyl)-2-(2,4-dichlorophenyl)-1,3-dioxolan-4-yl)methoxy)phenyl)piperazin-1-yl)-3-fluorophenyl)-2-(sec-butyl)-2,4-dihydro-3H-1,2,4-triazol-3-one]	–	–	17.2 (≈ 23.7 µM)	70.1 ± 15.4	increased activities
CCC(C)n1ncn(-c2ccc(N3CCN(c4ccc(OC[C@@H]5CO[C@@](Cn6ccnc6)(c6ccc(Cl)cc6Cl)O5)cn4)CC3)cc2)c1=O (stereo partly drawn) [Compound 4, 4-(4-(4-(5-(((2S,4R)-2-((1H-imidazol-1-yl)methyl)-2-(2,4-dichlorophenyl)-1,3-dioxolan-4-yl)methoxy)pyridin-2-yl)piperazin-1-yl)phenyl)-2-(sec-butyl)-2,4-dihydro-3H-1,2,4-triazol-3-one]	2600	–	2.94 (≈ 4.16 µM)	69.1 ± 7	increased activities
CCC(C)n1ncn(-c2ccc(N3CCN(c4ccc(OC[C@@H]5CO[C@@](Cn6cncn6)(c6ccc(Cl)cc6Cl)O5)cc4)CC3)c(F)c2)c1=O (stereo partly drawn) [Compound 104, 4-(4-(4-(4-(((2S,4R)-2-((1H-1,2,4-triazol-1-yl)methyl)-2-(2,4-dichlorophenyl)-1,3-dioxolan-4-yl)methoxy)phenyl)piperazin-1-yl)-3-fluorophenyl)-2-(sec-butyl)-2,4-dihydro-3H-1,2,4-triazol-3-one]	–	–	0.0291 (≈ 0.0402 µM)	128 ± 59.7	–
CCC(C)n1ncn(-c2ccc(N3CCN(c4ccc(OC[C@@H]5CO[C@@](Cn6ccnc6)(c6ccc(Cl)cc6Cl)O5)nc4)CC3)cc2)c1=O (stereo partly drawn) [Compound 2, 4-(4-(4-(6-(((2S,4R)-2-((1H-imidazol-1-yl)methyl)-2-(2,4-dichlorophenyl)-1,3-dioxolan-4-yl)methoxy)pyridin-3-yl)piperazin-1-yl)phenyl)-2-(sec-butyl)-2,4-dihydro-3H-1,2,4-triazol-3-one]	–	–	6.48 (≈ 9.19 µM)	468 ± 42.2	–
CCC(C)n1ncn(-c2ccc(N3CCN(c4ccc(OC[C@@H]5CO[C@@](Cn6cncn6)(c6ccc(Cl)cc6Cl)O5)nc4)CC3)cc2)c1=O (stereo partly drawn) [Compound 100, 4-(4-(4-(6-(((2S,4R)-2-((1H-1,2,4-triazol-1-yl)methyl)-2-(2,4-dichlorophenyl)-1,3-dioxolan-4-yl)methoxy)pyridin-3-yl)piperazin-1-yl)phenyl)-2-(sec-butyl)-2,4-dihydro-3H-1,2,4-triazol-3-one]	–	–	0.116 (≈ 0.164 µM)	687 ± 78.1	–
CCC(C)n1ncn(-c2ccc(N3CCN(c4ccc(OC[C@@H]5CO[C@@](Cn6ccnc6)(c6ccc(Cl)cc6Cl)O5)cc4)CC3)nc2)c1=O (stereo partly drawn) [Compound 6, 4-(6-(4-(4-(((2S,4R)-2-((1H-imidazol-1-yl)methyl)-2-(2,4-dichlorophenyl)-1,3-dioxolan-4-yl)methoxy)phenyl)piperazin-1-yl)pyridin-3-yl)-2-(sec-butyl)-2,4-dihydro-3H-1,2,4-triazol-3-one]	–	–	7.99 (≈ 11.3 µM)	98.5 ± 36.3	increased activities
CCC(C)n1ncn(-c2ccc(N3CCN(c4ccc(OC[C@@H]5CO[C@@](Cn6cncn6)(c6ccc(Cl)cc6Cl)O5)cc4)CC3)nc2)c1=O (stereo partly drawn) [Compound 102, 4-(6-(4-(4-(((2S,4R)-2-((1H-1,2,4-triazol-1-yl)methyl)-2-(2,4-dichlorophenyl)-1,3-dioxolan-4-yl)methoxy)phenyl)piperazin-1-yl)pyridin-3-yl)-2-(sec-butyl)-2,4-dihydro-3H-1,2,4-triazol-3-one]	–	–	0.0539 (≈ 0.0763 µM)	222 ± 23.1	–
CCC(C)n1ncn(-c2ccc(N3CCN(c4ccc(OC[C@@H]5CO[C@@](Cn6cncn6)(c6ccc(Cl)cc6Cl)O5)cc4)CC3)cn2)c1=O (stereo partly drawn) [Compound 103, 4-(5-(4-(4-(((2S,4R)-2-((1H-1,2,4-triazol-1-yl)methyl)-2-(2,4-dichlorophenyl)-1,3-dioxolan-4-yl)methoxy)phenyl)piperazin-1-yl)pyridin-2-yl)-2-(sec-butyl)-2,4-dihydro-3H-1,2,4-triazol-3-one]	–	–	0.496 (≈ 0.703 µM)	188 ± 17.5	–
